Experiments:
[1] = test system: anticorps anti-protéine F; assay: Western blot test on peptide spots with sera of HIV-1 infected patients; format: binding, humain
Protocol: Pour les besoins du test, les différents peptides PF16, PF19, PF13, PF17 utilisés sont dilués à une concentration de 2 mg/ml.
Sur une bande de papier BIORAD pour transblot, on dépose différents spots : 1µl, 2µl, 5µl, 10µl.
Après séchage on pratique un test Western Blot classique en utilisant comme anticorps des sérums de patients infectés par le virus HIV-1, positifs pour la protéine F, à des dilutions variant de 1/100 à 1/300.
Les peptides testés permettent d'aboutir aux résultats résumés dans le tableau 2 avec trois sérums différents anti-F ++ (++ signifiant une réaction plus marquée).

[2] = test system: anticorps anti-nef; assay: ELISA for detection of anti-nef antibodies on coated peptides or nef; format: binding, humain; conditions: 500 ng coated per well
Protocol: Des plaques de microtitration à 96 puits ont été recouvertes une nuit avec 500 ng de protéine nef bactérienne, à 37°C ou avec 500 ng de peptides synthétiques par puits dans 50µl de PBS à pH 7,4. Après saturation avec 400 µl de PBS pH 7,4, contenant 5% de caséine, durant 1 heure à 37°C et lavage avec PBS à pH 7,4, 0,5% de BSA, 0,01% tween, 50 µl de sérums à différentes dilutions ont été ajoutés pendant 2 heures à 37°C. Après le rinçage, 50µl de complexes d'IgG de souris anti-humaine-(H + L)-peroxydase 1:1000 ont été incubés pendant 1 heure à 37°C. Après un nouveau rinçage, 100µl de OPD ont été ajoutés pendant 30mn à température ambiante dans l'obscurité. La réaction de l'enzyme a été arrêtée par addition de 50µl d'acide sulfurique 4N et la densité optique des plaques a été lue à 492 nm/620 nm. Les plaques recouvertes avec la caséine ont été utilisées comme contrôle négatif.
En vue d'étudier la possibilité d'utiliser des peptides synthétiques en tant qu'antigènes pour la détection d'anticorps anti-nef chez des patients infectés par HIV, 8 peptides synthétiques couvrant la totalité de la séquence de la protéine nef de HIV-1 (figure 4) ont été utilisés dans un test ELISA avec 31 sérums anti-nef positifs et 2 sérums anti-nef négatifs utilisés comme contrôle. Les recombinants nef ont été utilisés comme contrôle positif dans les tests ELISA et la caséine a été utilisée comme contrôle négatif. Les résultats de ces expériences sont donnés dans le tableau 4 qui illustre l'essai suivant: Essai ELISA sur 31 sérums anti-nef-positifs et 2 sérums anti-nef- négatifs, soit pré-recouverts avec des peptides synthétiques (PF 11 à PF 18), soit en utilisant nef, la caséine ou un mélange de peptides PF 12 et PF 17. Les sérums ont été sélectionnés au hasard parmi des sérums anti-nef positifs et anti-nefs négatifs testés par la méthode RIA en utilisant ¹²⁵I nef. L'intensité de l'immunoradioactivité est notée "-" pour une densité optique (OD) inférieure à 0,2; "+" pour OD = 0,2 à 0,4; "++" pour OD = 0,4 à 0,8 et "+++" pour OD = 0,8 à 2,0.

Sequence: XASRDLEKHGAITSSNTAATNAACAWLEAQEEEEZ [PF13]
- réaction avec sérum 1545 1/200, 10µl ([1]; serum 1545 diluted 1/200, spot 10µl of peptide at 2 mg/ml): tr
- réaction avec sérum CHA 1/300, 1µl ([1]; serum CHA diluted 1/300, spot 1µl of peptide at 2 mg/ml): tr
- réaction avec sérum CHA 1/300, 2µl ([1]; serum CHA diluted 1/300, spot 2µl of peptide at 2 mg/ml): tr
- intensité de l'immunoréactivité (OD), Serum 1 ([2]; Serum 1, anti-nef positive): + (pour OD = 0,2 à 0,4)
- intensité de l'immunoréactivité (OD), Serum 2 ([2]; Serum 2, anti-nef positive): - (pour une densité optique (OD) inférieure à 0,2)
- intensité de l'immunoréactivité (OD), Serum 3 ([2]; Serum 3, anti-nef positive): +++ (pour OD = 0,8 à 2,0)
- intensité de l'immunoréactivité (OD), Serum 4 ([2]; Serum 4, anti-nef positive): + (pour OD = 0,2 à 0,4)
- intensité de l'immunoréactivité (OD), Serum 5 ([2]; Serum 5, anti-nef positive): - (pour une densité optique (OD) inférieure à 0,2)
- intensité de l'immunoréactivité (OD), Serum 6 ([2]; Serum 6, anti-nef positive): - (pour une densité optique (OD) inférieure à 0,2)
- intensité de l'immunoréactivité (OD), Serum 7 ([2]; Serum 7, anti-nef positive): ++ (pour OD = 0,4 à 0,8)
- intensité de l'immunoréactivité (OD), Serum 8 ([2]; Serum 8, anti-nef positive): ++ (pour OD = 0,4 à 0,8)
- intensité de l'immunoréactivité (OD), Serum 9 ([2]; Serum 9, anti-nef positive): ++ (pour OD = 0,4 à 0,8)
- intensité de l'immunoréactivité (OD), Serum 10 ([2]; Serum 10, anti-nef positive): - (pour une densité optique (OD) inférieure à 0,2)
- intensité de l'immunoréactivité (OD), Serum 11 ([2]; Serum 11, anti-nef positive): - (pour une densité optique (OD) inférieure à 0,2)
- intensité de l'immunoréactivité (OD), Serum 12 ([2]; Serum 12, anti-nef positive): - (pour une densité optique (OD) inférieure à 0,2)
- intensité de l'immunoréactivité (OD), Serum 13 ([2]; Serum 13, anti-nef positive): - (pour une densité optique (OD) inférieure à 0,2)
- intensité de l'immunoréactivité (OD), Serum 14 ([2]; Serum 14, anti-nef positive): ++ (pour OD = 0,4 à 0,8)
- intensité de l'immunoréactivité (OD), Serum 15 ([2]; Serum 15, anti-nef positive): - (pour une densité optique (OD) inférieure à 0,2)
- intensité de l'immunoréactivité (OD), Serum 16 ([2]; Serum 16, anti-nef positive): - (pour une densité optique (OD) inférieure à 0,2)
- intensité de l'immunoréactivité (OD), Serum 17 ([2]; Serum 17, anti-nef positive): - (pour une densité optique (OD) inférieure à 0,2)
- intensité de l'immunoréactivité (OD), Serum 18 ([2]; Serum 18, anti-nef positive): - (pour une densité optique (OD) inférieure à 0,2)
- intensité de l'immunoréactivité (OD), Serum 19 ([2]; Serum 19, anti-nef positive): - (pour une densité optique (OD) inférieure à 0,2)
- intensité de l'immunoréactivité (OD), Serum 20 ([2]; Serum 20, anti-nef positive): - (pour une densité optique (OD) inférieure à 0,2)
- intensité de l'immunoréactivité (OD), Serum 21 ([2]; Serum 21, anti-nef positive): - (pour une densité optique (OD) inférieure à 0,2)
- intensité de l'immunoréactivité (OD), Serum 22 ([2]; Serum 22, anti-nef positive): - (pour une densité optique (OD) inférieure à 0,2)
- intensité de l'immunoréactivité (OD), Serum 23 ([2]; Serum 23, anti-nef positive): - (pour une densité optique (OD) inférieure à 0,2)
- intensité de l'immunoréactivité (OD), Serum 24 ([2]; Serum 24, anti-nef positive): - (pour une densité optique (OD) inférieure à 0,2)
- intensité de l'immunoréactivité (OD), Serum 25 ([2]; Serum 25, anti-nef positive): - (pour une densité optique (OD) inférieure à 0,2)
- intensité de l'immunoréactivité (OD), Serum 26 ([2]; Serum 26, anti-nef positive): - (pour une densité optique (OD) inférieure à 0,2)
- intensité de l'immunoréactivité (OD), Serum 27 ([2]; Serum 27, anti-nef positive): - (pour une densité optique (OD) inférieure à 0,2)
- intensité de l'immunoréactivité (OD), Serum 28 ([2]; Serum 28, anti-nef positive): - (pour une densité optique (OD) inférieure à 0,2)
- intensité de l'immunoréactivité (OD), Serum 29 ([2]; Serum 29, anti-nef positive): ++ (pour OD = 0,4 à 0,8)
- intensité de l'immunoréactivité (OD), Serum 30 ([2]; Serum 30, anti-nef positive): - (pour une densité optique (OD) inférieure à 0,2)
- intensité de l'immunoréactivité (OD), Serum 31 ([2]; Serum 31, anti-nef positive): - (pour une densité optique (OD) inférieure à 0,2)
- intensité de l'immunoréactivité (OD), Serum 32 ([2]; Serum 32, anti-nef negative control serum): - (pour une densité optique (OD) inférieure à 0,2)
- intensité de l'immunoréactivité (OD), Serum 33 ([2]; Serum 33, anti-nef negative control serum): - (pour une densité optique (OD) inférieure à 0,2)

— patent EP0349354A1, “Peptides PF10 to PF19 from a retro virus HIV, method for the synthesis of these peptides and their use, particularly in diagnostics” (INSTITUT PASTEUR, priority 1988, dated 1990)
